The values that follow come from patent US8945865B2, “Method for screening for compound capable of enhancing or inhibiting OATP1B1 transport activity, and method for determining expression level of OATP1B1” (Eisai R&D Management Co., Ltd., priority 2011, dated 2015).

In data set [1] the target is T1, OATP1B1 (Homo sapiens, UniProt Q9Y6L6, N130D).
T1 sequence (Q9Y6L6 1-691 N130D): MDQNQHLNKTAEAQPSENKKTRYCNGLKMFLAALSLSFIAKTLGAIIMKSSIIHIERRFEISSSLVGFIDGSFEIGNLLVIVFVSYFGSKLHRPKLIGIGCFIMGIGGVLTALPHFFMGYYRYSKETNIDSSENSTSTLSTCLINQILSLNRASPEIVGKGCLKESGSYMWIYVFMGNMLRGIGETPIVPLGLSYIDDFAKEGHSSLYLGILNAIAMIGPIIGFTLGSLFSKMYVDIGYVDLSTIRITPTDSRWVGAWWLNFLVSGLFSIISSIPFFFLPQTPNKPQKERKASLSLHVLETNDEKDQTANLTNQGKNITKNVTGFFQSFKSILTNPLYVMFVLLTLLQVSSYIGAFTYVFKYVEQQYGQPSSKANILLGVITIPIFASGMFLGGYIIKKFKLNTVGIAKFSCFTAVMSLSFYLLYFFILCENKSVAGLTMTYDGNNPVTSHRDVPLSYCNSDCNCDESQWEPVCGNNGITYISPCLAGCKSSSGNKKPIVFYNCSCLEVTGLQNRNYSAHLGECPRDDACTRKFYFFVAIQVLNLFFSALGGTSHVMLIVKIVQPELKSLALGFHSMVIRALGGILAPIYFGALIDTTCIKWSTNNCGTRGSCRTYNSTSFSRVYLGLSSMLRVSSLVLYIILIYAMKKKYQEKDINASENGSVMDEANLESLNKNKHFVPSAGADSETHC
The data set is described as follows: OATP1B1 inhibition, DCF method (fluorescent substrate).

Data set [2] concerns the target T1, OATP1B1. The data set is described as follows: OATP1B1 inhibition, conventional RI method (radiolabeled estradiol-17β-D-glucuronide). On the procedure:
In the conventional RI method, radiolabeled estradiol-17β-D-glucuronide (EG) was used. […] Subsequently, the cells were washed with an ice-cold KH buffer three times and then solubilized with an aqueous 0.1 N NaOH solution, and after neutralization with an aqueous 1 N HCl solution, the radioactivity taken up by the cells was measured.

For data set [3], the target named is T1, OATP1B1. The data set is described as follows: Effect of known OATP inhibitors on OATP1B1-mediated uptake of DCF. The conditions noted are these: DCF 3 μM, inhibitor 10 and 30 μM.
Data set [4] deals with human hepatocytes. The data set is described as follows: Time/temperature-dependent uptake of DCF by human hepatocytes. The class given is in vitro ADME. The conditions noted are these: 37° C. versus 4° C., 0.5 to 5 min, cryopreserved human hepatocytes. On the procedure:
Cryopreserved human hepatocytes and cryopreserved hepatocytes recovery medium (CHRM) were purchased from Invitrogen Corporation. The cryopreserved human hepatocytes were thawed in a water bath at 37° C. and were added to the CHRM prewarmed at 37° C. After centrifugation at room temperature, the supernatant was discarded, and a hepatocyte suspension at 1×10^6 cells/mL was prepared in ice-cold KH buffer and stored on ice. […] The hepatocytes were incubated at 37° C. and 4° C., respectively, for 0 to 5 minutes. […] Specifically, 80 μL of the hepatocyte suspension was collected and added to a centrifugal tube containing 50 μL of oil (specific gravity: 1.015, Sigma-Aldrich Co.) and 100 μL of an aqueous 2 N NaOH solution under the oil layer, and centrifugation was performed at 10,000 g for 20 seconds. By the centrifugation, the hepatocytes passed through the oil layer and were solubilized with an aqueous 2 N NaOH solution.

The next data set deals with T2, OAT3 (Homo sapiens, UniProt Q8TCC7).
T2 sequence (Q8TCC7 1-542): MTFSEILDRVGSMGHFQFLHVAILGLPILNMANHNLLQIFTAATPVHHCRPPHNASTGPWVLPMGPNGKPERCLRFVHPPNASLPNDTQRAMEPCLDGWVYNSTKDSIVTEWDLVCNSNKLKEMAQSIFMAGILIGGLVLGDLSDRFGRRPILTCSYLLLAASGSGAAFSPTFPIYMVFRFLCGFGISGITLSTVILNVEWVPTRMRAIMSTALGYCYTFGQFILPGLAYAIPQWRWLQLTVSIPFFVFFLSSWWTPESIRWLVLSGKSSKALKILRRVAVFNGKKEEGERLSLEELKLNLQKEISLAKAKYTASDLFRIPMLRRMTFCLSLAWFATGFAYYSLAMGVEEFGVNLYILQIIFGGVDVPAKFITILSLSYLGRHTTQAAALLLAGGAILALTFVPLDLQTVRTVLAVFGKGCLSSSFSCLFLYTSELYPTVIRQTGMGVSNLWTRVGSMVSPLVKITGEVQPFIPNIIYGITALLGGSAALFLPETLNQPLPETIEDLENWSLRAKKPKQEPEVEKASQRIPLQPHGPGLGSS
The data set is described as follows: Substrate specificity of fluorescein derivatives on OAT3 (same method). The conditions noted are these: FIG. 1(b), same method as Example 1.

Data set [5] concerns the target T1, OATP1B1.
Experimental: The Km and Vmax were calculated by the following Michaelis-Menten equation. […] Each parameter represents the mean value of four independent experiments.
In data set [6] the target is T1, OATP1B1. The data set is described as follows: Substrate specificity of fluorescein derivatives: uptake by HEK-293 cells forcedly expressing OATP1B1. The class given is in vitro ADME. Further details: Expression vectors, pcDNA3.1 vectors (Invitrogen Corporation), carrying the resulting genes were respectively introduced into HEK-293 cells; expressed in transfected cells; host or cells: HEK-293 cells, pcDNA3.1 vector, hygromycin selection. The conditions noted are these: 1 μM dye, 37° C., 5 minutes, compared with OATP1B3 and OATP2B1. On the procedure: Complementary DNAs of OATP1B1, OATP1B3, and OATP2B1 (respectively shown by SEQ ID NOs: 2, 3, and 4) were cloned by RT-PCR using human liver total RNA (Invitrogen Corporation) as a template and the following primers: […]
Expression vectors, pcDNA3.1 vectors (Invitrogen Corporation), carrying the resulting genes were respectively introduced into HEK-293 cells by lipofection using Lipofectamin 2000 (Invitrogen Corporation). The cells were cultured in Hygromycin-containing selective media to produce HEK-293 cells forcedly expressing OATP1B1, OATP1B3, and OATP2B1, respectively.

Data set [7] concerns human hepatocytes. On the procedure:
(§1) Human hepatocytes were prepared as in Example 6, and a hepatocyte suspension was prepared at 1×10^6 cells/mL.

For data set [8], the target named is T1, OATP1B1. The data set is described as follows: Time profiles of the uptake of DCF by OATP1B1. Further details: Expression vectors, pcDNA3.1 vectors (Invitrogen Corporation), carrying the resulting genes were respectively introduced into HEK-293 cells; expressed in transfected cells; host or cells: HEK-293 cells, pcDNA3.1 vector, hygromycin selection. The class given is in vitro ADME. The conditions noted are these: 0.1, 1 and 10 μM DCF, 37° C., 1 to 30 min.
Experimental: The cells were sampled at the incubation times of 1 min, 5 min, 10 min, and 30 min, washed with an ice-cold KH buffer three times, and then solubilized with an aqueous 0.1 N NaOH solution, and the fluorescence intensity of the fluorescent dye taken up by the cells was measured as in Example 1 (excitation wavelength: 490 nm, fluorescence wavelength: 515 nm).

Data set [9] has as its system human hepatocytes. The data set is described as follows: Effect of OATP inhibitors on DCF uptake by human hepatocytes. As to conditions: inhibitor final 10 μM, 37° C.; reduced to the level comparable to the uptake at 4° C. On the procedure: as §1
[10] abbreviates: read-out: Ki (DCF), substrate DCF 3 μM, HEK-293 cells forcedly expressing OATP1B1, 37° C., 5 minutes.
Setting [11] is: read-out: Ki (EG), substrate radiolabeled EG 0.01 μM, HEK-293 cells forcedly expressing OATP1B1, 37° C., 5 minutes.

Broadly, the Ki is a measure of affinity in units of concentration, obtained from inhibition or displacement. For orientation: Km means the concentration of substrate that gives half-maximal velocity.

Experimental for OAT3: The above cells were seeded in a poly-D-lysine-coated dish at 4×10^5 cells/well. The medium was replaced with a KH buffer, and various fluorescent dyes dissolved in DMSO were added to the respective HEK-293 cells such that the final concentration in the KH buffer was 1 μM, followed by incubation at 37° C. for 5 minutes. Subsequently, the cells were washed with an ice-cold KH buffer three times and were then solubilized with an aqueous 0.1 N NaOH solution, and the fluorescence intensity of the fluorescent dye taken up by the cells was measured (excitation wavelength: 490 nm, fluorescence wavelength: 515 nm).
In order to quantitatively measure the amount of fluorescent compound taken up by the cells, a calibration curve showing the fluorescence intensity per unit fluorescent compound was prepared in advance. Based on this calibration curve, the measured fluorescence intensity was converted into the fluorescent compound per well (pmol/well or μL/well), which was divided by the total protein amount (mg protein/well) of the solubilized cells (standardization) to convert into the fluorescent compound amount per unit protein (pmol/mg protein or μL/mg protein).

Turning to `C[C@]12CC[C@@H]3c4ccc(OS(=O)(=O)O)cc4CC[C@H]3[C@@H]1CCC2=O` [ES, estrone-3-sulfate], the Ki on OATP1B1 [1] (setting [10]) amounted to 79 nM; at OATP1B1 [2] (setting [11]), 78 nM. Moreover, the “concentration dependence of inhibition of OATP1B1-mediated DCF uptake” value at OATP1B1 [3] was “inhibition depends on the concentrations”.
As to `CO[C@H]1/C=C/O[C@@]2(C)Oc3c(C)c(O)c4c(O)c(c(/C=N/N5CCN(C)CC5)c(O)c4c3C2=O)NC(=O)/C(C)=C\C=C\[C@H](C)[C@H](O)[C@@H](C)[C@@H](O)[C@@H](C)[C@H](OC(C)=O)[C@@H]1C` [Rifampicin, rifampicin], the Ki at OATP1B1 [1] amounted to 260 nM; on OATP1B1 [2] it was 290 nM.
Consider `C=CC[C@@H]1/C=C(\C)C[C@H](C)C[C@H](OC)[C@H]2O[C@@](O)(C(=O)C(=O)N3CCCC[C@H]3C(=O)O[C@H](/C(C)=C/[C@@H]3CC[C@@H](O)[C@H](OC)C3)[C@H](C)[C@@H](O)CC1=O)[C@H](C)C[C@@H]2OC` [Tacrolimus], for which the Ki on OATP1B1 [1] stood at 1270 nM; at OATP1B1 [2], 890 nM.
Take `C[C@]12CC[C@@H]3c4ccc(O)cc4CC[C@H]3[C@@H]1CC[C@@H]2O[C@@H]1O[C@H](C(=O)O)[C@@H](O)[C@H](O)[C@H]1O` [estradiol-17β-D-glucuronide]: the “concentration dependence of inhibition of OATP1B1-mediated DCF uptake” value on OATP1B1 [3] was “inhibition depends on the concentrations”.
As to `CC(=O)N1CCN(c2ccc(OCC3COC(Cn4ccnc4)(c4ccc(Cl)cc4Cl)O3)cc2)CC1` (stereo not drawn) [Ketoconazole], the Ki at OATP1B1 [1] amounted to 15600 nM; on OATP1B1 [2] it was 12200 nM.
With `CN/C(=N/CCSCc1nc[nH]c1C)NC#N` [Cimetidine], the Ki on OATP1B1 [1] and at OATP1B1 [2] was over 300000 nM each time.
With `C[C@H](CCC(=O)NCCS(=O)(=O)O)[C@H]1CC[C@H]2[C@@H]3[C@H](O)C[C@@H]4C[C@H](O)CC[C@]4(C)[C@H]3C[C@H](O)[C@]12C` [Taurocholic acid], the Ki on OATP1B1 [1] was 8680 nM; on OATP1B1 [2], 17500 nM.
Regarding `O=C1OC2(c3cc(Cl)c(O)cc3Oc3cc(O)c(Cl)cc32)c2ccccc21` [DCF, Dichlorofluorescein], the “transporter-mediated uptake of DCF by human hepatocytes” value with human hepatocytes [4] is on record as “increases over time”. Further, the “substrate for OAT3” value at OAT3 is “not a satisfactory substrate”. For the same molecule, the Km at OATP1B1 [5] was determined as 7.22 µM; in the data set with human hepatocytes [7], 38.6 µM. Moreover, the “uptake of fluorescent dye among the combinations of fluorescent dye and transporters tested” value at OATP1B1 [6] was “highest uptake”. Also, the “uptake amount of DCF by HEK-293 cells forcedly expressing OATP1B1” value at OATP1B1 [8] was “increases over time and depends on the concentration of added DCF”.
For `O=C1OC(c2ccc(O)c(S(=O)(=O)O)c2)(c2ccc(O)c(S(=O)(=O)O)c2)c2c(Br)c(Br)c(Br)c(Br)c21` [BSP, bromosulfophthalein], the Ki on OATP1B1 [1] (setting [10]) was determined as 92 nM; on OATP1B1 [2] (setting [11]) it was 73 nM. In the data set on human hepatocytes [9], the “DCF uptake by human hepatocytes in presence of inhibitor” value was “reduced”.
In the case of `CC[C@H]1OC(=O)[C@H](C)[C@@H](O[C@H]2C[C@@](C)(OC)[C@@H](O)[C@H](C)O2)[C@H](C)[C@@H](O[C@@H]2O[C@H](C)C[C@H](N(C)C)[C@H]2O)[C@](C)(O)C[C@@H](C)C(=O)[C@H](C)[C@@H](O)[C@]1(C)O` [Erythromycin], the Ki on OATP1B1 [1] came to 6990 nM; on OATP1B1 [2] it was 4140 nM.
Take `CN(Cc1cnc2nc(N)nc(N)c2n1)c1ccc(C(=O)N[C@@H](CCC(=O)O)C(=O)O)cc1` [Methotrexate]: the Ki on OATP1B1 [1] and at OATP1B1 [2] was over 300000 nM throughout.
